In the NIST ThermoML archive (doi:10.1016/j.jct.2004.11.020):

How the values were obtained:
[1] = 308.15 K, 101.33 kPa, Liquid; for speed of sound: Pulse-echo method
[2] = xn = mol fraction of the nth substance listed; details: 308.15 K, 101 kPa, Liquid; for speed of sound: Pulse-echo method

CCC(O)CO (stereo unspecified) [1,2-butanediol]
[1]
Details	mass density [kg/m3]	speed of sound [m/s]	viscosity [mPa·s]
–	988.25	1422.6	30.29

CCC(O)CO (stereo unspecified) [1,2-butanediol] + O=C1CCCN1
[2]
Details	excess molar volume [m3/mol]	speed of sound [m/s]	viscosity [mPa·s]
x2 = 0.027	–	1426.7	28.33
x2 = 0.0473	1.3e-08	–	–
x2 = 0.0512	–	1430.5	27.12
x2 = 0.0621	1.8e-08	–	–
x2 = 0.0786	2.4e-08	–	–
x2 = 0.0797	–	1435.2	25.57
x2 = 0.0977	–	1438.2	24.38
x2 = 0.0991	2.8e-08	–	–
x2 = 0.113	3.2e-08	–	–
x2 = 0.1263	3.6e-08	–	–
x2 = 0.142	4e-08	–	–
x2 = 0.1464	–	1446.3	22.32
x2 = 0.162	4.4e-08	–	–
x2 = 0.1937	–	1454.3	20.82
x2 = 0.1973	4.7e-08	–	–
x2 = 0.2456	5e-08	–	–
x2 = 0.2794	5.2e-08	–	–
x2 = 0.3017	–	1472.5	17.81
x2 = 0.3213	5.3e-08	–	–
x2 = 0.3797	5.2e-08	–	–
x2 = 0.4034	5.1e-08	–	–
x2 = 0.4061	–	1490.3	15.69
x2 = 0.4544	5e-08	–	–
x2 = 0.4753	4.9e-08	–	–
x2 = 0.5014	4.7e-08	–	–
x2 = 0.5017	–	1507.5	14.09
x2 = 0.5226	4.4e-08	–	–
x2 = 0.5643	4.1e-08	–	–
x2 = 0.5966	3.8e-08	–	–
x2 = 0.5983	–	1524.7	12.68
x2 = 0.6244	3.6e-08	–	–
x2 = 0.6571	3.3e-08	–	–
x2 = 0.688	2.9e-08	–	–
x2 = 0.7038	–	1543.6	11.52
x2 = 0.71	2.6e-08	–	–
x2 = 0.7348	2.4e-08	–	–
x2 = 0.7619	2e-08	–	–
x2 = 0.7843	1.7e-08	–	–
x2 = 0.798	–	1561	10.78
x2 = 0.8061	1.4e-08	–	–
x2 = 0.8374	1.2e-08	–	–
x2 = 0.8484	–	1570.6	10.26
x2 = 0.8607	1.1e-08	–	–
x2 = 0.8753	1e-08	–	–
x2 = 0.8878	9e-09	–	–
x2 = 0.9038	–	1580.6	9.435
x2 = 0.9039	8e-09	–	–
x2 = 0.924	7e-09	–	–
x2 = 0.9319	–	1586.6	9.291
x2 = 0.9469	6e-09	–	–
x2 = 0.9512	–	1590.1	9.015
x2 = 0.9599	5e-09	–	–
x2 = 0.9738	–	1594.7	8.969
x2 = 0.9885	3e-09	–	–
x2 = 0.9955	2e-09	–	–

CC(O)CCO (stereo unspecified) [1,3-butanediol]
[1]
Details	mass density [kg/m3]	speed of sound [m/s]	viscosity [mPa·s]
–	991.28	1496	54.24

CC(O)CCO (stereo unspecified) [1,3-butanediol] + O=C1CCCN1
[2]
Details	excess molar volume [m3/mol]	speed of sound [m/s]	viscosity [mPa·s]
x2 = 0.0122	2e-09	–	–
x2 = 0.0261	–	1498	51.57
x2 = 0.0368	8e-09	–	–
x2 = 0.0526	–	1500.5	46.61
x2 = 0.055	2.3e-08	–	–
x2 = 0.0755	–	1502.8	44.87
x2 = 0.0812	3.4e-08	–	–
x2 = 0.0939	4.6e-08	–	–
x2 = 0.1	–	1504.8	40.88
x2 = 0.1079	5.5e-08	–	–
x2 = 0.1227	5.9e-08	–	–
x2 = 0.1447	6.3e-08	–	–
x2 = 0.1543	–	1509.2	36.15
x2 = 0.1594	6.7e-08	–	–
x2 = 0.1843	8.2e-08	–	–
x2 = 0.2041	–	1513.2	31.48
x2 = 0.2174	9.5e-08	–	–
x2 = 0.2396	1.02e-07	–	–
x2 = 0.2586	1.16e-07	–	–
x2 = 0.2859	1.25e-07	–	–
x2 = 0.3003	–	1521.1	26.19
x2 = 0.3054	1.31e-07	–	–
x2 = 0.3436	1.38e-07	–	–
x2 = 0.3606	1.42e-07	–	–
x2 = 0.3817	1.46e-07	–	–
x2 = 0.3932	–	1529.1	21.54
x2 = 0.4337	1.48e-07	–	–
x2 = 0.4571	1.49e-07	–	–
x2 = 0.4815	1.49e-07	–	–
x2 = 0.4985	–	1539	17.82
x2 = 0.519	1.48e-07	–	–
x2 = 0.5798	1.45e-07	–	–
x2 = 0.5931	1.41e-07	–	–
x2 = 0.5936	1.39e-07	–	–
x2 = 0.6015	1.38e-07	–	–
x2 = 0.603	–	1549	15.46
x2 = 0.6087	1.37e-07	–	–
x2 = 0.6204	1.33e-07	–	–
x2 = 0.6319	1.32e-07	–	–
x2 = 0.6419	1.32e-07	–	–
x2 = 0.6744	1.28e-07	–	–
x2 = 0.6903	1.22e-07	–	–
x2 = 0.6985	–	1559.4	13.17
x2 = 0.705	1.2e-07	–	–
x2 = 0.7245	1.15e-07	–	–
x2 = 0.7372	1.15e-07	–	–
x2 = 0.7679	1.07e-07	–	–
x2 = 0.7781	9.8e-08	–	–
x2 = 0.7935	–	1570.9	11.85
x2 = 0.7976	9.2e-08	–	–
x2 = 0.8132	8.3e-08	–	–
x2 = 0.8358	7.3e-08	–	–
x2 = 0.839	–	1576.8	10.81
x2 = 0.8994	–	1585.1	9.984
x2 = 0.9271	–	1589	9.739
x2 = 0.947	–	1592.3	9.44
x2 = 0.9774	–	1596.3	9.15

OCCCCO [1,4-butanediol]
[1]
Details	mass density [kg/m3]	speed of sound [m/s]	viscosity [mPa·s]
–	1003.95	1577.8	47.38

OCCCCO [1,4-butanediol] + O=C1CCCN1
[2]
Details	excess molar volume [m3/mol]	speed of sound [m/s]	viscosity [mPa·s]
x2 = 0.0144	-1e-09	–	–
x2 = 0.0265	–	1579.3	44.47
x2 = 0.0335	-2e-09	–	–
x2 = 0.0524	–	1580.6	42.37
x2 = 0.0631	-5e-09	–	–
x2 = 0.0746	–	1581.5	40.73
x2 = 0.0859	-7e-09	–	–
x2 = 0.099	–	1582.3	39.16
x2 = 0.1034	-1.2e-08	–	–
x2 = 0.1244	-1.6e-08	–	–
x2 = 0.133	-1.8e-08	–	–
x2 = 0.1495	-2.2e-08	–	–
x2 = 0.1515	–	1583.7	35.63
x2 = 0.1707	-2.4e-08	–	–
x2 = 0.1835	-2.6e-08	–	–
x2 = 0.1968	-2.7e-08	–	–
x2 = 0.197	–	1585.2	32.87
x2 = 0.2205	-2.8e-08	–	–
x2 = 0.2428	-2.9e-08	–	–
x2 = 0.2649	-2.7e-08	–	–
x2 = 0.2863	-2.6e-08	–	–
x2 = 0.2914	–	1587.8	27.93
x2 = 0.3121	-2.6e-08	–	–
x2 = 0.3339	-2.2e-08	–	–
x2 = 0.3582	-2e-08	–	–
x2 = 0.384	-1.5e-08	–	–
x2 = 0.3911	–	1589.6	23.57
x2 = 0.4202	-1.1e-08	–	–
x2 = 0.4438	-9e-09	–	–
x2 = 0.4533	–	1590.3	–
x2 = 0.4656	-7e-09	–	–
x2 = 0.4771	-4e-09	–	–
x2 = 0.4954	-2e-09	–	–
x2 = 0.5159	-2e-09	–	–
x2 = 0.5237	–	1591.3	19.22
x2 = 0.527	0	–	–
x2 = 0.5409	1e-09	–	–
x2 = 0.5644	4e-09	–	–
x2 = 0.5753	6e-09	–	–
x2 = 0.5886	7e-09	–	–
x2 = 0.5997	–	1592.6	17.1
x2 = 0.6032	8e-09	–	–
x2 = 0.6155	1e-08	–	–
x2 = 0.6273	1.3e-08	–	–
x2 = 0.6452	2e-08	–	–
x2 = 0.6685	2.2e-08	–	–
x2 = 0.6788	2.3e-08	–	–
x2 = 0.6904	–	1593.7	14.81
x2 = 0.6925	2.4e-08	–	–
x2 = 0.7159	2.5e-08	–	–
x2 = 0.7338	2.6e-08	–	–
x2 = 0.7494	2.7e-08	–	–
x2 = 0.7878	–	1595	12.92
x2 = 0.8877	–	1596.8	10.74
x2 = 0.9305	–	1598	10.14
x2 = 0.9481	–	1598.5	9.772
x2 = 0.9741	–	1599.2	9.275

CC(O)C(C)O (stereo unspecified) [2,3-butanediol]
[1]
Details	mass density [kg/m3]	speed of sound [m/s]	viscosity [mPa·s]
–	990.72	1456.6	51.38

CC(O)C(C)O (stereo unspecified) [2,3-butanediol] + O=C1CCCN1
[2]
Details	excess molar volume [m3/mol]	speed of sound [m/s]	viscosity [mPa·s]
x2 = 0.0199	1.9e-08	–	–
x2 = 0.0255	–	1458.7	46.85
x2 = 0.0339	3.3e-08	–	–
x2 = 0.0483	4.5e-08	–	–
x2 = 0.0507	–	1460.7	41.26
x2 = 0.0634	5.4e-08	–	–
x2 = 0.0737	6e-08	–	–
x2 = 0.0765	–	1463	39.43
x2 = 0.0885	7.5e-08	–	–
x2 = 0.1001	–	1466.3	37.32
x2 = 0.1008	8.2e-08	–	–
x2 = 0.1118	8.7e-08	–	–
x2 = 0.118	9.3e-08	–	–
x2 = 0.1313	9.9e-08	–	–
x2 = 0.1447	1.06e-07	–	–
x2 = 0.1489	–	1470.5	32.26
x2 = 0.1571	1.12e-07	–	–
x2 = 0.1702	1.17e-07	–	–
x2 = 0.185	1.29e-07	–	–
x2 = 0.1941	–	1475.2	28.87
x2 = 0.2191	1.39e-07	–	–
x2 = 0.2418	1.48e-07	–	–
x2 = 0.2675	1.54e-07	–	–
x2 = 0.2854	1.59e-07	–	–
x2 = 0.2955	–	1488.2	23.79
x2 = 0.3058	1.63e-07	–	–
x2 = 0.3226	1.67e-07	–	–
x2 = 0.3312	1.68e-07	–	–
x2 = 0.3459	1.71e-07	–	–
x2 = 0.3589	1.72e-07	–	–
x2 = 0.383	1.72e-07	–	–
x2 = 0.3899	–	1500.7	19.82
x2 = 0.3973	1.72e-07	–	–
x2 = 0.4043	1.73e-07	–	–
x2 = 0.4156	1.72e-07	–	–
x2 = 0.4506	1.71e-07	–	–
x2 = 0.4667	1.7e-07	–	–
x2 = 0.4926	1.69e-07	–	–
x2 = 0.5097	1.7e-07	–	–
x2 = 0.5261	1.7e-07	–	–
x2 = 0.5294	–	1520.3	16.06
x2 = 0.5431	1.67e-07	–	–
x2 = 0.5651	1.68e-07	–	–
x2 = 0.5844	1.65e-07	–	–
x2 = 0.5898	–	1529.2	14.65
x2 = 0.6052	1.6e-07	–	–
x2 = 0.6266	1.58e-07	–	–
x2 = 0.6501	1.52e-07	–	–
x2 = 0.6693	1.51e-07	–	–
x2 = 0.6894	1.45e-07	–	–
x2 = 0.6978	–	1546.9	12.54
x2 = 0.8089	–	1565.1	11.22
x2 = 0.8587	–	1573.7	10.53
x2 = 0.9067	–	1582	9.623
x2 = 0.9497	–	1590.4	9.337
x2 = 0.9702	–	1594.2	9.114

O=C1CCCN1 [2-pyrrolidinone]
[1]
Details	mass density [kg/m3]	speed of sound [m/s]	viscosity [mPa·s]
–	1097.14	1600	8.922
